Tests used:
caspase-3 in HepG2 cells = assay: Western blot of cleaved caspase-3; format: cell-based, human; settings: HepG2, 2 μM, 7 h, Western blot densitometry
Experimental: (§1) To analyse the protein levels of p53, caspase-3, GRP78, LC3 and p62, HepG2 cells were treated with P. tomentosa compounds (1 or 2 μM) or with DMSO for the indicated times; then, Western blot analyses were performed. Briefly, cells were lysed in RIPA buffer (20 mM Tris-HCl, pH 7.5, 150 mM NaCl, 1 mM EDTA, 1 mM dithiothreitol, 0.1% sodium dodecyl sulphate, 1% triton X-100, 1 mM orthovanadate, and a cocktail of inhibitors (Sigma-Aldrich, Milan, Italy)). After separation on a sodium dodecyl sulphate-polyacrylamide gel electrophoresis and transfer to a poly-vinylidene fluoride membrane (Euroclone, Milan, Italy), the following primary antibodies were used, at a dilution of 1:1000 in tris-buffered saline containing 1% non-fat dry milk, overnight at 4 °C: mouse anti-p53 antibody, mouse anti-MAP LC3 β antibody, mouse anti-p62 antibody (DBA, Milan, Italy), mouse anti-GRP78 antibody, and mouse anti-caspase 3 antibody (Thermo Fisher Scientific, Milan, Italy). For normalisation, a mouse anti-GAPDH antibody (Microtech, Naples, Italy) was used.

HepG2 cells [1] = assay: Transwell migration assay; format: cell-based, human; settings: HepG2, 1 μM, 18 h
Experimental: Transwell filters (coated with collagen) in serum-free media containing 0.1% of BSA, with a PET membrane with 8 μm pores (BD Biosciences, Milan, Italy), were rehydrated for 2 h at 37 °C. HepG2 were seeded in the upper chambers at a density of 75 × 10^3 cells in MEM with 0.1% BSA and treated with or without 1 µM of Pergularia compounds. MEM−0.1%BSA, supplemented with 10% FBS, was added to the lower chamber as chemoattractant. Control wells without 10% FBS were included to assess random migration. After incubation at 37 °C in 5% CO2 for 18 h, the migrated cells were fixed with 4% paraformaldehyde for 5 min, permeabilised with methanol for 20 min and stained with crystal violet 0.5% for 15 min at room temperature. The cells on the lower side of the filter were allowed to dry before counting. Eight separate bright-field images were randomly acquired of each filter using an Olympus CKX41 Image Analyzer. The cells in each image were counted and analysed compared to control-transfected cells.

HepG2 cells [2] = assay: MTT cell viability assay, IC50 in HepG2 cells; format: cell-based; settings: Homo sapiens, 24 h, SE less than 10% of value
Experimental: The human liver hepatocellular carcinoma cell line, HepG2, and the human adenocarcinoma of colon cell line, Caco-2, were cultured in Eagle’s Minimum Essential medium supplemented with 1% (v/v) non-essential amino acids, 0.2 mM L-glutamine, 50 units/mL penicillin, 50 μg/mL streptomycin and 10% (v/v) or 20% (v/v) fetal bovine serum (Sigma Aldrich, Milan, Italy) for HepG2 or Caco-2, respectively. The human embryonal lung fibroblast cell line, MRC5, was cultured in Dulbecco’s Modified Eagle medium (Sigma Aldrich, Milan, Italy) supplemented with 10% (v/v) fetal bovine serum, 0.2 mM L-glutamine, 50 units/mL penicillin and 50 μg/mL streptomycin. HUVEC cells were cultured in endothelial growth medium-2, supplemented with fetal bovine serum (2%), VEGF (0.1%), rH FGF-B (0.4%), rH EGF (0.1%), GA-1000 (0.1%), hydrocortisone (0.04%), R3-IGF-1 (0.1%), heparin (0.1%) and ascorbic acid (0.1%). Cells were maintained at 37 °C in a 5% CO2, 95% air-humidified atmosphere and passaged twice a week. Cell lines were obtained from Interlab Cell Line Collection, Istituto Nazionale per la Ricerca sul Cancro, Genoa, Italy. HUVEC were obtained from Lonza (Milan, Italy).
An MTT assay was used to analyse cell viability. Cells were seeded in 96 wells at the density of 2 × 10^4/cm^2 and, after 24 h, they were treated with P. tomentosa compounds or with the vehicle (DMSO). After a further 24 h of treatment, 0.5 mg/mL of MTT was added to the cell medium and incubated for 1.5 h at 37 °C. The resulting formazan crystals were dissolved in 100 μL of DMSO and absorbances were measured at 595 nm and 655 nm. The background signals at 655 nm were subtracted from 595 nm signals, and data were expressed as a percent of cell viability. The concentration of each compound that is required for 50% inhibition in vitro (IC50) was calculated as described in Husseini et al.. IC50 values were obtained for Caco-2, HepG2 and MRC5 cells by performing MTT assays with concentrations ranging from 0.01 μg/mL to 5 μg/mL.

LC3 in HepG2 cells = assay: Western blot of LC3 (LC3-I and LC3-II); format: cell-based, human; settings: HepG2, 1 μM, 24 h
Experimental: as §1

HepG2 cells [3] = assay: BrdU incorporation (proliferation) assay; format: cell-based, human; settings: HepG2, 1 μM, 24 h
Experimental: Cell proliferation was analysed by a BrdU (Roche Diagnostics SpA, Monza, Italy) incorporation assay, as previously described. Briefly, HepG2 cells, seeded at adensity of 3 × 10^3/cm^2 on round glass cover slips, were treated for 24 h with P. tomentosa compounds at 1 μM. Then, BrdU was added to cell medium (final concentration, 100 μM) for 1 h. Cells were fixed (in 3% paraformaldehyde, 10 min), permeabilised (in 0.2% Triton X-100, 5 min) and treated with HCl 1.5 N (5 min). Finally, cover slips were incubated with a monoclonal antibody against BrdU (Sigma-Aldrich, Milan, Italy), 1:100, and with a TRITC-conjugated secondary antibody, 1:100. After staining with Hoechst, cover slips were mounted with Mowiol (Sigma, Milan, Italy). […] Images were acquired with Axiocam MRc5 and processed with ImageJ Launcher. The number of cells into S-phase was expressed as the ratio between the number of cells incorporating BrdU and the total number of cells.

HepG2 cells [4] = assay: TUNEL assay; format: cell-based, human; settings: HepG2, 1 μM, 24 h
Experimental: Microscopic evaluation of apoptosis was performed by a TUNEL assay, using a commercial kit (Fragment End Labelling (FragEL™), […]) DNA Fragmentation Detection Kit, Sigma-Aldrich, Milan, Italy) according to the manufacturer-provided protocol, with some modifications. Briefly, cells were seeded on glass cover slips placed in 24-well plates at a density of 3.5 × 10^3/cm^2 and, after 48 h, they were treated with 1 μΜ of each compound for a further 24 h. Cells were fixed in 3% paraformaldehyde for 10 min, permeabilised in 0.2% Triton X-100 for 5 min and treated with HCl 1.5 N for 8 min. Finally, cover slips were equilibrated in equilibration buffer (10 min) and incubated with label mix containing the TdT enzyme for 1 h at 37 °C, then mounted with mounting media. Microscope observations were performed by the AxioSkop 40 fluorescent microscope. Images were acquired with Axiocam MRc5 (Carl Zeiss MicroImaging, Inc., Jena, Germany).

p53 in HepG2 cells = assay: Western blot analysis of p53 expression; format: cell-based, human; settings: HepG2, 1 μM, 24 h
Experimental: as §1

## C[C@@H]1C[C@@H](O)[C@]2(O)O[C@@H]3C[C@@]4(C=O)[C@@H](CC[C@@H]5[C@@H]4CC[C@]4(C)[C@@H](C6=CC(=O)OC6)CC[C@]54O)C[C@H]3O[C@@H]2O1 [Compound 5, calactin]
caspase-3 in HepG2 cells
  cleaved caspase-3 (caspase-3 activation): most active
HepG2 cells [1]
  effect on transwell migration: most potent
HepG2 cells [2]
  IC50: 127 nM
LC3 in HepG2 cells
  LC3-I level: reduction in the LC3-I form
  LC3-II level: more marked
HepG2 cells [3]
  effect on BrdU incorporation / cell cycle progression: significantly affected cell cycle progression
HepG2 cells [4]
  apoptotic nuclei (TUNEL): occurrence of apoptotic nuclei
p53 in HepG2 cells
  p53 protein level: clearly decreased the p53 amount

— paper PMC9369610, “Pro-Apoptotic and Pro-Autophagic Properties of Cardenolides from Aerial Parts of Pergularia tomentosa” (Molecules, 2022)
